For twelve compounds, Ki results are on record in patent publication US6136825A, “Sulfonamide compounds having 5-HT receptor activity” (Knoll Aktiengesellschaft, priority 1996, dated 2000).

For assay [1], the target named is T1, 5-HT1A (Rattus norvegicus, UniProt P19327).
T1 construct: Hippocampal tissue from the brains of male Charles River CD rats; from tissue; host or cells: rat hippocampus (male Charles River CD rats), crude membrane pellet
T1 sequence (P19327 1-422): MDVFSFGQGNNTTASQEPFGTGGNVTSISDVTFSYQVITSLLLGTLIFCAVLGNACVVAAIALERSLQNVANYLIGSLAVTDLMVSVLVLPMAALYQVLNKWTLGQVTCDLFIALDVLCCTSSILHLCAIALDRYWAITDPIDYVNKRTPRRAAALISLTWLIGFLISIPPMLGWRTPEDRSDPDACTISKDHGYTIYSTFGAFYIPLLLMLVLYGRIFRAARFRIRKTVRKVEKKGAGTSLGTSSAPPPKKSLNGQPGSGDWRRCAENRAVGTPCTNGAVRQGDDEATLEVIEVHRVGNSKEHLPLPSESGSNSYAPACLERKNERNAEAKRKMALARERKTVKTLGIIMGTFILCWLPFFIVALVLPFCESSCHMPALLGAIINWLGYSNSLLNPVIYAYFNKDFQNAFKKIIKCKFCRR
The assay is described as follows: inhibition of tritiated ligand ([3H]8-OH-DPAT) binding to 5-HT1A receptors, rat hippocampal tissue. Further details: species or system male Charles River CD rats. The note with it: 25° C., 30 minutes, pH 7.7. The protocol: Hippocampal tissue from the brains of male Charles River CD rats weighing between 150-250 g were homogenised in ice-cold 50 mM Tris-HCl buffer (pH 7.7) when measured at 25° C., 1:40 w/v) and centrifuged at 30,000 g at 4° C. for 10 minutes. The pellet was rehomogenised in the same buffer, incubated at 37° C. for 10 minutes and centrifuged at 30,000 g at 4° C. for 10 minutes. The final pellet was resuspended in 50 mM Tris-HCl buffer (pH 7.7) containing 4 mM CaCl2, 0.1% L-ascorbic acid and 10 μM pargyline hydrochloride (equivalent to 6.25 mg wet weight of tissue/ml) and used immediately in the binding assay. Aliquots (400 μl; equivalent to 2.5 mg wet weight of tissue/tube) of this suspension were added to tubes containing the ligand (50 μl; 2 nM) and distilled water (50 μl; total binding) or 5-HT (50 μl; 10 μM; non-specific binding) or test compound (50 μl; at a single concentration of 10^-6 M or at 10 concentrations ranging from 10^-11 -10^-3 M). The ligand was [^3 H]8-hydroxy-2-(dipropylamino)tetralin ([^3 H]8-OH-DPAT) and the mixture was incubated at 25° C. for 30 minutes before the incubation was terminated by rapid filtration.
The filters were washed with ice-cold Tris-HCl buffer and dried. The filters were punched out into vials, scintillation fluid added and radioactivity determined by liquid scintillation counting. The percentage displacement of specific binding of the tritiated ligand was calculated for the single concentration (10^-6 M) of test compound. Displacement curves were then produced for those compounds which displaced ≥50% of specific binding of the tritiated ligand at 10^-6 M using a range of concentrations of the compound. The concentration which gave 50% inhibition of specific binding (IC50) was obtained from the curve. The inhibition coefficient Ki was then calculated using the formula [formula] in which [ligand] is the concentration of the tritiated ligand used and KD Is the equilibrium dissociation constant for the ligand.

For assay [2], the target named is T2, D2-like dopamine receptors (Rattus norvegicus, UniProt P61169).
T2 construct: Striatal tissue from the brains of male Charles River CD rats; from tissue; host or cells: rat striatum (male Charles River CD rats), crude membrane pellet
The assay is described as follows: inhibition of tritiated (S)-sulpiride binding to D2-like dopamine receptors, rat striatal tissue. Further details: species or system male Charles River CD rats. The settings on record: 4° C., 40 minutes, pH 7.7. The protocol:
Striatal tissue from the brains of male Charles River CD rats weighing between 140-250 g were homogenised in ice-cold 50 mM Tris-HCl buffer (pH 7.7 when measured at 25° C.) and centrifuged at 40,000 g for 10 minutes. The pellet was resuspended in Tris salts buffer (50 mM Tris-HCl buffer containing 120 mM NaCl, 5 mM KCl, 2 mM CaCl2 and 1 mM MgCl2 with the addition of 6 mM ascorbic acid; pH 7.7 when measured at 25° C.), and again centrifuged at 40,000 g for 10 minutes. The final pellet was stored at -80° C. Before each test the pellet was resuspended in Tris salts buffer (equivalent to 2 mg wet weight of tissue/ml). Aliquots (720 μl; equivalent to 1.44 mg wet weight of tissue/tube) of this suspension were then added to tubes containing the ligand (40 μl; 1 nM) and Tris salts buffer (40 μl; total binding) or spiroperidol (40 μl; 10 nM; non-specific binding) or test compound (40 μl; at a single concentration of 10^-6 M or at 6 concentrations ranging from 10^-11 -10^-4 M). The ligand was tritiated (S)-sulpiride and the mixture was incubated at 4° C. for 40 minutes before the incubation was terminated by rapid filtration.
The filters were washed with ice-cold Tris-HCl buffer and dried. The filters were punched out in to vials, scintillation fluid added and were left for about 20 hours before being counted by scintillation spectrophotometry. The percentage displacement of specific binding of the tritiated ligand was calculated for the single concentration (10^-6 M) of test compound. Displacement curves were then produced over a range of concentrations for those compounds which displaced ≥50% of specific binding of the tritiated ligand at 10^-6 M. The concentration which gave a 50% inhibition of specific binding (IC50) was obtained from the curve. The inhibition coefficient Ki was then calculated using the formula [formula] in which [ligand] is the concentration of the tritiated ligand used and KD is the equilibrium dissociation constant for the ligand.

Where a name gives a salt, the structure may show the parent alone.

T2 sequence (P61169 whole entry): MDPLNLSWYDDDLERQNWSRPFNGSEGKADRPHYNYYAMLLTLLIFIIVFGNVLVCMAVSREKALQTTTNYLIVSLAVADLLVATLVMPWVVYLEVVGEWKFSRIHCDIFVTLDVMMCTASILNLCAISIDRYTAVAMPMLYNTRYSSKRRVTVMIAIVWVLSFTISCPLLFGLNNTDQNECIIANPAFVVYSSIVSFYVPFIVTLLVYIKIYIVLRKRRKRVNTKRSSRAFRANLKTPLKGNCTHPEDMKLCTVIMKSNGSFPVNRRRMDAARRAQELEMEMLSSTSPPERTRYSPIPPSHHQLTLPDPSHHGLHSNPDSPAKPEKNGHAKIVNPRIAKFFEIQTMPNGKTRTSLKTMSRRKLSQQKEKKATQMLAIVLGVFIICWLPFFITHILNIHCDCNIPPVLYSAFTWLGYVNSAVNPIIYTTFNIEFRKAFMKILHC

Take `O=S(=O)(NCC1CCN(C[C@H]2COc3ccc(Cl)cc3O2)CC1)c1ccccn1` [Example 1, (S)-(-)-N-{[1-(7-chloro-1,4-benzodioxan-2-ylmethyl)-4-piperidyl]methyl}pyridine-2-sulphonamide monohydrochloride 0.6 hydrate]: the Ki in assay [1] was determined as 86.8 nM; in assay [2], 29.4 nM.
Taken in the same sequence, the figures for `O=S(=O)(c1ccccn1)N1CCC(CNC[C@H]2COc3ccc(Cl)cc3O2)CC1` [Example 2, (S)-(-)-4-[N-(7-chloro-1,4-benzodioxan-2-ylmethyl)aminomethyl]-1-(2-pyridinesulphonyl)piperidine 0.8 hydrate] were 11.4 nM and 27.9 nM.
Take `O=S(=O)(NCC1CCN(C[C@H]2COc3ccc(Cl)cc3O2)CC1)c1cccnc1` [Example 3, (S)-(-)-N-{[1-(7-chloro-1,4-benzodioxan-2-ylmethyl)-4-piperidyl]methyl}pyridine-3-sulphonamide 0.8 hydrate]: the Ki in assay [1] was found to be 31.6 nM; in assay [2], 28 nM.
Consider `O=[N+]([O-])c1ccc(S(=O)(=O)NCC2CCN(C[C@H]3COc4ccc(Cl)cc4O3)CC2)cc1` [Example 4, (S)-(-)-N-{[1-(7-chloro-1,4-benzodioxan-2-ylmethyl)-4-piperidyl]-methyl}-4-nitrobenzenesulphonamide], for which the figures for the Ki in assay [1] and in assay [2] were 15 nM and 105 nM, respectively.
Consider `O=S(=O)(NCC1CCN(C[C@H]2COc3ccc(Cl)cc3O2)CC1)c1ccc(F)cc1` [Example 5, (S)-(-)-N-{[1-(7-chloro-1,4-benzodioxan-2-ylmethyl)-4-piperidyl]methyl}-4-fluorobenzene-sulphonamide], for which the values for the Ki in assay [1] and in assay [2] were 37 nM and 69.8 nM, respectively.
Taken in the same sequence, the figures for `COc1ccc(S(=O)(=O)NCC2CCN(C[C@H]3COc4ccc(Cl)cc4O3)CC2)cc1OC` [Example 6, (S)-(-)-N-{[1-(7-chloro-1,4-benzodioxan-2-ylmethyl)-4-piperidyl]methyl}-3,4-dimethoxybenzenesulphonamide] were 20 nM and 40.2 nM.
For `O=S(=O)(NCC1CCN(C[C@H]2COc3ccc(Cl)cc3O2)CC1)c1ccc(F)cc1F` [Example 7, (S)-(-)-N-{[1-(7-chloro-1,4-benzodioxan-2-ylmethyl)-4-piperidyl]methyl}-2,4-difluorobenzenesulphonamide], the Ki in assay [1] is 35 nM; in assay [2], 37.8 nM.
For the compound `CC(=O)Nc1ccc(S(=O)(=O)NCC2CCN(C[C@H]3COc4ccc(Cl)cc4O3)CC2)cc1` [Example 8, (S)-(-)-4-acetamido-N-{[1-(7-chloro-1,4-benzodioxan-2-ylmethyl)-4-piperidyl]methyl}benzenesulphonamide], the Ki is 45 nM in assay [1] and 37.2 nM in assay [2].
As for `COc1ccc(S(=O)(=O)NCC2CCN(C[C@H]3COc4ccc(Cl)cc4O3)CC2)cc1` [Example 9, (S)-(-)-N-{[1-(7-chloro-1,4-benzodioxan-2-ylmethyl)-4-piperidyl]-methyl}-4-methoxybenzenesulphonamide], the Ki was found to be 42 nM in assay [1] and 96.4 nM in assay [2].
Consider `O=S(=O)(NCC1CCN(C[C@H]2COc3ccc(Cl)cc3O2)CC1)c1c(F)cccc1F` [Example 10, (S)-(-)-N-{[1-(7-chloro-1,4-benzodioxan-2-ylmethyl)-4-piperidyl]methyl}-2,6-difluorobenzenesulphonamide], for which the Ki in assay [1] worked out at 7.4 nM; in assay [2], 50.1 nM.
Taken in the same sequence, the figures for `O=S(=O)(NCC1CCN(C[C@H]2COc3ccc(Cl)cc3O2)CC1)c1ccc(Cl)cc1` [Example 11, (S)-(-)-N-{[1-(7-chloro-1,4-benzodioxan-2-ylmethyl)-4-piperidyl]methyl}-4-chlorobenzene-sulphonamide] were 69 nM and 157 nM.
For the compound `O=S(=O)(NCC1CCN(C[C@H]2COc3ccc(C(F)(F)F)cc3O2)CC1)c1ccccn1` [Example 12, (S)-(-)-N-J[1-(7-trifluoromethyl-1,4-benzodioxan-2-ylmethyl)-4-piperidyl]methyl,pyridine-2-sulphonamide], the Ki in assay [1] was found to be 30 nM; in assay [2], 28.7 nM.

What is called Ki is a dissociation constant, usually derived from enzyme kinetics or from competition with a known ligand.
